The target of one assay is T1, recombinant human plasminogen activator inhibitor-1 (PAI-1) (Homo sapiens, UniProt P05121).
T1 construct: purchased Molecular Innovations, Royal Oak, Mich
T1 sequence (P05121 24-402): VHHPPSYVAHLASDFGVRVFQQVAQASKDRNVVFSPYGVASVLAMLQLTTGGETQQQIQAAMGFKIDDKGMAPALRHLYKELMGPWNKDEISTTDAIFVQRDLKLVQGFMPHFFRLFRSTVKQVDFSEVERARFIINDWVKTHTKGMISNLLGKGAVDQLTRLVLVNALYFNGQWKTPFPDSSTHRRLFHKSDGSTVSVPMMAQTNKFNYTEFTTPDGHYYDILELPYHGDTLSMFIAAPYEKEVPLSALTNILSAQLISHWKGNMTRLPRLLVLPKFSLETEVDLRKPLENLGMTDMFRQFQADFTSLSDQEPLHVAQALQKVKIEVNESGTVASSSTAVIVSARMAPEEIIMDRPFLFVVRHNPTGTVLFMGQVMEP
Kind of assay: Screening for PAI-1 inhibition (residual tPA activity, Spectrozyme-tPA chromogenic substrate). In kind it is biochemical. The following applies: test compound at 100 Um; pH 6.6 buffer, 140 nM PAI-1, 70 nM tPA. In a few lines: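 PAI-1 at 140 nM, pH 6.6 buffer, preincubated 1 h at room temperature with compound (1-100 μM final, ≤0.2% DMSO), then 70 nM tPA added for 30 min. Residual tPA activity read by Spectrozyme-tPA absorbance at 405 nm at 0 and 60 min. Inhibition taken as residual tPA activity.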
As for `O=C(O)CO/N=C/c1cn(Cc2ccccc2)c2ccc(OCc3ccc(C(F)(F)F)cc3)cc12` [Compound 3, ({[(1E)-(1-benzyl-5-{[4-(trifluoromethyl)benzyl]oxy}-1H-indol-3-yl)methylidene]amino}oxy)acetic acid], the inhibition at 100 µM stood at 82%.

For `O=C(O)CO/N=C/c1cn(Cc2ccccc2)c2ccc(OCc3ccc(Br)cc3)cc12` [Compound 9, {[((1E)-{1-benzyl-5-[(4-bromobenzyl)oxy]-1H-indol-3-yl}methylidene)amino]oxy}acetic acid], the inhibition at 100 µM came out at 85%.

As to `Cn1cc(/C=N/OCC(=O)O)c2cc(OCc3ccc(C(F)(F)F)cc3)ccc21` [Compound 32, ({[(1E)-(1-methyl-5-{[4-(trifluoromethyl)benzyl]oxy}-1H-indol-3-yl)methylidene]amino}oxy)acetic acid], the inhibition at 100 µM is 82%.

In the case of `CC(C)(C)c1ccc(COc2ccc(OCc3ccc(C(C)(C)C)cc3)c(/C=N/OCC(=O)O)c2)cc1` [Compound 156, {[((1E)-{2,5-bis[(4-tert-butylbenzyl)oxy]phenyl}methylidene)amino]oxy}acetic acid], the inhibition at 100 µM amounted to 99%.

Take `O=C(O)CO/N=C/c1cc(OCc2cccc(Cl)c2)ccc1OCc1cccc(Cl)c1` [Compound 157, {[((1E)-{2,5-bis[(3-chlorobenzyl)oxy]phenyl}methylidene)amino]oxy}acetic acid]: the inhibition at 100 µM stood at 85%.

Turning to `O=C(O)CO/N=C/c1cc(OCc2cccc(Br)c2)ccc1OCc1cccc(Br)c1` [Compound 158, {[((1E)-{2,5-bis[(3-bromobenzyl)oxy]phenyl}methylidene)amino]oxy}acetic acid], the inhibition at 100 µM was determined as 69%.

Consider `Cc1cccc(COc2ccc(OCc3cccc(C)c3)c(/C=N/OCC(=O)O)c2)c1` [Compound 159, {[((1E)-{2,5-bis[(3-methylbenzyl)oxy]phenyl}methylidene)amino]oxy}acetic acid], for which the inhibition at 100 µM stood at 69%.

`Cc1ccc(COc2ccc(OCc3ccc(C)cc3)c(/C=N/OCC(=O)O)c2)cc1` [Compound 160, {[((1E)-{2,5-bis[(4-methylbenzyl)oxy]phenyl}methylidene)amino]oxy}acetic acid]: the inhibition at 100 µM amounted to 76%.

Consider `O=C(O)CO/N=C/c1cc(OCc2ccc(F)c(F)c2)ccc1OCc1ccc(F)c(F)c1` [Compound 161, {[((1E)-{2,5-bis[(3,4-difluorobenzyl)oxy]phenyl}methylidene)amino]oxy}acetic acid], for which the inhibition at 100 µM was 92%.

With `CC(C)(C)c1ccc(OCC#Cc2ccc(/C=N/OCC(=O)O)cc2)cc1` [Compound 162, {[((1E)-{4-[3-(4-tert-butylphenoxy)prop-1-ynyl]phenyl}methylidene)amino]oxy}acetic acid], the inhibition at 100 µM was 51%.

`O=C(O)CO/N=C/c1ccc(C#CCOc2ccc(Br)cc2)cc1` [Compound 163, {[((1E)-{4-[3-(4-bromophenoxy)prop-1-ynyl]phenyl}methylidene)amino]oxy}acetic acid]: the inhibition at 100 µM was found to be 65%.

Take `O=C(O)CO/N=C/c1ccc(C#CCOc2cc(C(F)(F)F)cc(C(F)(F)F)c2)cc1` [Compound 164, ({[(1E)-(4-{3-[3,5-bis(trifluoromethyl)phenoxy]prop-1-ynyl}phenyl)methylidene]amino}oxy) acetic acid]: the inhibition at 100 µM came out at 73%.

`O=C(O)CO/N=C/c1ccc(C#CCOc2cc(Cl)cc(Cl)c2)cc1` [Compound 165, {[((1E)-{4-[3-(3,5-dichlorophenoxy)prop-1-ynyl]phenyl}methylidene)amino]oxy}acetic acid]: the inhibition at 100 µM was 68%.

With `O=C(O)CO/N=C/c1ccc(C#CCOc2cccc(Cl)c2)cc1` [Compound 166, {[((1E)-{4-[3-(3-chlorophenoxy)prop-1-ynyl]phenyl}methylidene)amino]oxy}acetic acid], the inhibition at 100 µM amounted to 42%.

In the case of `CC(C)Cc1ccc(OCC#Cc2ccc(/C=N/OCC(=O)O)cc2)cc1` [Compound 167, {[((1E)-{4-[3-(4-isobutylphenoxy)prop-1-ynyl]phenyl}methylidene)amino]oxy}acetic acid], the inhibition at 100 µM turned out to be 53%.

For `CC(C)(C)c1ccc(OCC#Cc2cccc(/C=N/OCC(=O)O)c2)cc1` [Compound 168, {[((1E)-{3-[3-(4-tert-butylphenoxy)prop-1-ynyl]phenyl}methylidene)amino]oxy}acetic acid], the inhibition at 100 µM was found to be 52%.

Consider `O=C(O)CO/N=C/c1cccc(C#CCOc2ccc(Br)cc2)c1` [Compound 169, {[((1E)-{3-[3-(4-bromophenoxy)prop-1-ynyl]phenyl}methylidene)amino]oxy}acetic acid], for which the inhibition at 100 µM was determined as 60%.

Turning to `O=C(O)CO/N=C/c1cccc(C#CCOc2cc(C(F)(F)F)cc(C(F)(F)F)c2)c1` [Compound 170, ({[(1E)-(3-{3-[3,5-bis(trifluoromethyl)phenoxy]prop-1-ynyl}phenyl)methylidene]amino}oxy)acetic acid], the inhibition at 100 µM came out at 73%.

As for `O=C(O)CO/N=C/c1cccc(C#CCOc2cc(Cl)cc(Cl)c2)c1` [Compound 171, {[((1E)-{3-[3-(3,5-dichlorophenoxy)prop-1-ynyl]phenyl}methylidene)amino]oxy}acetic acid], the inhibition at 100 µM was found to be 69%.

In the case of `O=C(O)CO/N=C/c1cccc(C#CCOc2cccc(Cl)c2)c1` [Compound 172, {[((1E)-{3-[3-(3-chlorophenoxy)prop-1-ynyl]phenyl}methylidene)amino]oxy}acetic acid], the inhibition at 100 µM came to 44%.

For `CC(C)Cc1ccc(OCC#Cc2cccc(/C=N/OCC(=O)O)c2)cc1` [Compound 173, {[((1E)-{3-[3-(4-isobutylphenoxy)prop-1-ynyl]phenyl}methylidene)amino]oxy}acetic acid], the inhibition at 100 µM stood at 56%.

A further assay deals with human PAI-1 (Homo sapiens, UniProt P05121). The assay is described as follows: Assay for determining the IC50 of inhibition of PAI-1 (active PAI-1 bound to tPA-coated plate, 33B8 antibody detection). In kind it is biochemical. The following applies: values carry suffix (K), not explained; test compounds 1-50 μM, pH 7.5. The procedure: Assay for determining the IC50 of inhibition of PAI-1. This assay is based upon the non-SDS dissociable interaction between Tpa and active PAI-1. Assay plates are initially coated with human Tpa (10 μg/ml). Test compounds are dissolved in DMSO at 10 Mm, then diluted with physiologic buffer (Ph 7.5) to a final concentration of 1-50 μM. The test compounds are incubated with human PAI-1 (50 ng/ml) for 15 minutes at room temperature. The Tpa-coated plate is washed with a solution of 0.05% Tween 20 and 0.1% BSA, then the plate is blocked with a solution of 3% BSA. An aliquot of the test compound/PAI-1 solution is then added to the Tpa-coated plate, incubated at room temperature for 1 hour, and washed. Active PAI-1 bound to the plate is assessed by adding an aliquot of a 1:1000 dilution of the 33B8 monoclonal antibody against human PAI-1, and incubating the plate at room temperature for 1 hour (Molecular Innovations, Royal Oak, Mich.). The plate is again washed, and a solution of goat anti-mouse IgG-alkaline phosphatase conjugate is added at a 1:50,000 dilution in goat serum. The plate is incubated 30 minutes at room temperature, washed, and a solution of alkaline phosphatase substrate is added. The plate is incubated 45 minutes at room temperature, and color development is determined at OD405 nm. The quantitation of active PAI-1 bound to Tpa at varying concentrations of the test compound is used to determine the IC50. Results are analyzed using a logarithmic best-fit equation. The assay sensitivity is 5 ng/ml of human PAI-1 as determined from a standard curve ranging from 0-100 ng/ml.
Sequence of human PAI-1 (P05121 24-402): as above
`O=C(O)CO/N=C/c1cn(Cc2ccccc2)c2ccc(OCc3ccc(C(F)(F)F)cc3)cc12` [Compound 3, ({[(1E)-(1-benzyl-5-{[4-(trifluoromethyl)benzyl]oxy}-1H-indol-3-yl)methylidene]amino}oxy)acetic acid]: the IC50 is 1.85 µM.

Molecule `O=C(O)CO/N=C/c1cn(Cc2ccccc2)c2ccc(OCc3ccc(Br)cc3)cc12` [Compound 9, {[((1E)-{1-benzyl-5-[(4-bromobenzyl)oxy]-1H-indol-3-yl}methylidene)amino]oxy}acetic acid] had an IC50 of 16.9 µM.

In the case of `Cn1cc(/C=N/OCC(=O)O)c2cc(OCc3ccc(C(F)(F)F)cc3)ccc21` [Compound 32, ({[(1E)-(1-methyl-5-{[4-(trifluoromethyl)benzyl]oxy}-1H-indol-3-yl)methylidene]amino}oxy)acetic acid], the 50% inhibitory concentration (IC50) amounted to 9.36 µM.

The values above are taken from patent publication US7411083B2, “Substituted acetic acid derivatives” (Wyeth, priority 2003, dated 2008).
